Reference: PMC11031590, “Narazaciclib, a novel multi-kinase inhibitor with potent activity against CSF1R, FLT3 and CDK6, shows strong anti-AML activity in defined preclinical models” (Scientific Reports, 2024)
pIC50: −log10 of the molar value. Like-named read-outs stand apart in the source and are kept apart here.

Experiments:
[1] = Single-dose oral pharmacokinetics in non-tumor bearing mice; type: in vivo; conditions: female, NOD/scid; for CL/F: read-out: CL_F (converted)
Method: In order to understand the effective anti-AML exposure of narazaciclib in mice, we conducted a preliminary pharmacokinetic (PK) analysis of a single-dose oral administration of narazaciclib, at the same dose levels as in anti-AML pharmacology study above, in non-tumor bearing mice. Following a single oral administration of narazaciclib at either 30 mg/kg or 100 mg/kg in mice, plasma samples were collected at various timepoints. The plasma concentrations of narazaciclib were analyzed by LC–MS. […] In addition, narazaciclib undergoes relatively fast elimination from plasma with a T1/2 of 2.77 h for narazaciclib at 100 mg/kg or 1.92 h at 30 mg/kg.
Noncompartmental analyses (NCA) were performed using WinNonlinTM Phoenix, version XXX software (Pharsight, Cary, NC) to estimate the PK parameters including T1/2, elimination half-life; Tmax, Time to peak drug concentration; Cmax, maximum concentration; AUC0-∞, area under the plasma concentration–time curve from zero to infinity; AUC0-t, area under the plasma concentration–time curve from zero to the time of the last quantifiable time-point; CL_F, total body clearance; Vz-F, total volume of distribution. Following a single oral administration of narazaciclib at either 100 mg/kg or 30 mg/kg in female NOD/scid mice (N = 3), plasma samples were collected from 3 mice at each timepoint (pre-dose, 1h, 2h, 4h, 8h, 12h and24hpost administration) and analyzed by LC–MS.

CMK-115 = test: AML cell line in vitro proliferation assay; type: cell-based
Method: (§1) Narazaciclib was serially diluted with culture medium to 9 final assay concentrations from 0.01 to 100 μM. The assay was performed with both a negative control (vehicle) and a positive control (Cisplatin) in triplicate. The AML cell lines at log-growth phase were cultured in 96-well plates (black transparent flat bottom 96-well plate, Corning, Cat# 3603, FBS, ExCell Bio., Cat# FND500) in the presence of narazaciclib or Cisplatin at various concentrations for 72 h or 120 h (only for AML-193 cell line), followed by CTG readout according to the manufacturer’s instruction (CellTiter-Glo Luminescent Cell Viability Assay, Promega, Cat# G7573). Viability%=Lumdrug-Lummedium control/Lumcell control-Lummedium control×100%. Lumcell control-Lummedium controlas100%,LumMediumcontrolas0%. Proliferationfold increase=D5-LumNone treated-LumMedium control/D2LumNone treated-LumMedium control
(§2) Dose–response curves were fitted by a 4-parameter log-logistic model: Inhibition%=Bottom+Top-Bottom/1+10^logEC50-x∗HillSlope where Top and Bottom are the two asymptotes of the sigmoidal curve, EC50 is the relative IC50, concentration x is in log-10 scale and HillSlope is the slope at the EC50 point on the fitted curve. The fitted area under the curve (AUC) was calculated by: Inhibition%=Bottom+Top-Bottom/1+10^logEC50-x∗HillSlope where a represents the log10-transformed minimal concentration and b represents the log10-transformed maximal concentration. An extremely strong positive correlation between the absolute IC50 and AUC is shown in Supplemental Fig. S5.

NOMO-1 = test: AML cell line in vitro proliferation assay; type: cell-based
Method: as §1, §2

SKNO-1 = test: AML cell line in vitro proliferation assay; type: cell-based
Method: as §1, §2

HNT34 = test: AML cell line in vitro proliferation assay; type: cell-based
Method: as §1, §2

PL21 = test: AML cell line in vitro proliferation assay; type: cell-based
Method: as §1, §2

ML2 = test: AML cell line in vitro proliferation assay; type: cell-based
Method: as §1, §2

SKM-1 = test: AML cell line in vitro proliferation assay; type: cell-based
Method: as §1, §2

UT7 = test: AML cell line in vitro proliferation assay; type: cell-based
Method: as §1, §2

OCI-M2 = test: AML cell line in vitro proliferation assay; type: cell-based
Method: as §1, §2

HL-60 = test: AML cell line in vitro proliferation assay; type: cell-based
Method: as §1, §2

HEL-9217 = test: AML cell line in vitro proliferation assay; type: cell-based
Method: as §1, §2

Ba/F3-CSF1R cell line = test: Ba/F3-CSF1R proliferation assay (CTG); type: cell-based, mouse
Method: (§3) The recombinant Ba/F3 cell lines overexpressing human CSF1R, or human RBM6-CSF1R, or human ETV6-CSF1R were generated using a retrovirus vector (Kyinno Co., Ltd. Beijing). The recombinant Ba/F3 lines overexpressing human Kras G12C orEGFR-L718Q mutants, and different mutant variants of FLT3 were also similarly created as well. A standard proliferation assay via CTG readout was performed according to the vendor’s instructions (KYinno Biotechnology Co., Ltd. Beijing).

Ba/F3-FLT3-ITD (Y842H) = Ba/F3-FLT3-ITD (Y842H) proliferation assay; type: cell-based, mouse
Method: as §3

Ba/F3-EGFR-L718Q = Ba/F3-EGFR-L718Q proliferation assay (CTG); type: cell-based; conditions: Mus musculus
Method: as §3

[2] = 30 mg/kg single oral, mouse plasma
[3] = 100 mg/kg single oral, mouse plasma

AUC(0-inf) ([1]; mouse, plasma, oral, corresponding to 100 mg/kg dose level, read-out: efficacious exposure for anti-AML in mice in terms of AUC0~∞): < 8190 ng·h/mL
Cmax ([1]; mouse, plasma, oral, corresponding to 100 mg/kg dose level, read-out: efficacious exposure for anti-AML in mice in terms of Cmax): < 1460 ng/mL
AUC(0-t) [1, 2]: 1040 ng·h/mL
Tmax [1, 2]: 1 h
half-life [1, 2]: 1.92 h
AUC(0-inf) ([1]; 30 mg/kg single oral, mouse plasma, read-out: AUC0-∞): 1200 ng·h/mL
CL/F [1, 2]: 415 mL/min/kg
Cmax ([1]; 30 mg/kg single oral, mouse plasma, read-out: Cmax): 469 ng/mL
AUC(0-t) [1, 3]: 8190 ng·h/mL
Tmax [1, 3]: 2 h
half-life [1, 3]: 2.77 h
AUC(0-inf) ([1]; 100 mg/kg single oral, mouse plasma, read-out: AUC0-∞): 8210 ng·h/mL
CL/F [1, 3]: 203 mL/min/kg
Cmax ([1]; 100 mg/kg single oral, mouse plasma, read-out: Cmax): 1460 ng/mL
pIC50 (SKNO-1; SKNO-1, 72 h, CTG): 6.63
pIC50 (SKM-1; Homo sapiens, SKM-1, 72 h, CTG): 5.71
pIC50 (OCI-M2; OCI-M2, 72 h, CTG): < 4.00
pIC50 (HL-60; Homo sapiens, HL-60, 72 h, CTG): 5.21
pIC50 (Ba/F3-CSF1R cell line; Mus musculus, + 100 ng/ml CSF-1): ~8.45
% of Ba/F3-FLT3 (IC50) (Ba/F3-FLT3-ITD (Y842H)): 11.20%
pIC50 (Ba/F3-FLT3-ITD (Y842H); Mus musculus): 7.47
pIC50 (Ba/F3-EGFR-L718Q): 6.20
SMILES: CN1CCN(c2ccc(Nc3ncc4cc(C#N)c(=O)n(C5CCCC5)c4n3)cc2)CC1 [Narazaciclib, narazaciclib]
pIC50 (CMK-115; CMK-11-5, CMK-115, 72 h, CTG): 5.29
Classification by AUC (CMK-115; CMK-115): Insensitive (AUC ≥ 2.8, insensitive)
AUC (CMK-115; CMK-115, area under the dose–response curve): 2.801
pIC50 (NOMO-1; Homo sapiens, NOMO-1, 72 h, CTG): < 4.00
Classification by AUC (NOMO-1; NOMO-1): Insensitive (AUC ≥ 2.8, insensitive)
AUC (NOMO-1; NOMO-1, area under the dose–response curve): 3.207
Classification by AUC (SKNO-1; SKNO-1): Sensitive (AUC ≤ 2.4, sensitive)
AUC (SKNO-1; SKNO-1, area under the dose–response curve): 1.97
Classification by AUC (HNT34; HNT34): Sensitive (AUC ≤ 2.4, sensitive)
AUC (HNT34; HNT34, area under the dose–response curve): 2.068
pIC50 (HNT34; HNT-34, HNT34, 72 h, CTG): 5.83
Classification by AUC (PL21; PL21): Sensitive (AUC ≤ 2.4, sensitive)
AUC (PL21; PL21, area under the dose–response curve): 2.37
pIC50 (PL21; PL-21, PL21, 72 h, CTG): 5.47
pIC50 (ML2; Homo sapiens, ML-2, ML2, 72 h, CTG): 5.44
Classification by AUC (ML2; ML2): Intermediate (2.4 < AUC < 2.8, intermediate)
AUC (ML2; ML2, area under the dose–response curve): 2.633
Classification by AUC (SKM-1; SKM-1): Sensitive (AUC ≤ 2.4, sensitive)
AUC (SKM-1; SKM-1, area under the dose–response curve): 2.323
pIC50 (UT7; Homo sapiens, UT7, 72 h, CTG): 4.21
Classification by AUC (UT7; UT7): Insensitive (AUC ≥ 2.8, insensitive)
AUC (UT7; UT7, area under the dose–response curve): 3.469
Classification by AUC (OCI-M2; OCI-M2): Insensitive (AUC ≥ 2.8, insensitive)
AUC (OCI-M2; OCI-M2, area under the dose–response curve): 3.46
Classification by AUC (HL-60; HL-60): Insensitive (AUC ≥ 2.8, insensitive)
AUC (HL-60; HL-60, area under the dose–response curve): 2.836
Classification by AUC (HEL-9217; HEL-9217): Insensitive (AUC ≥ 2.8, insensitive)
AUC (HEL-9217; HEL-9217, area under the dose–response curve): 3.209
pIC50 (HEL-9217; Homo sapiens, HEL 92.1.7, HEL-9217, 72 h, CTG): 4.80
times more potent than GW2580 (Ba/F3-CSF1R cell line; Ba/F3-CSF1R in the presence of CSF1): 16 times
